# Measured values from patent US9145411B2, “Substituted amino-pyrimidine derivatives” (Asana Biosciences, LLC, priority 2012, dated 2015).
# Key:
# PI3Kα (wild-type) = target: T1, PI3Kα (wild-type) (Homo sapiens, UniProt P42336); assay: PI3 Kinase TR-FRET assay, PI3Kα (wild-type); format: biochemical; conditions: wild-type P110/P85α, 10 μM ATP
# T1 construct: made in house; host or cells: SF9 insect cells
# Protocol: The ability of compounds of the invention to inhibit PI3K activity was determined in a homogeneous TR-FRET assay using a PI3K assay kit (Millipore, USA; cat #33-016) according to manufacturer's instructions. PI3-Kinases (isoforms α, β, γ and δ) catalyze the phosphorylation of phosphatidylinositol, PIP2 to PIP3 in the presence of ATP and Mg^2+. The PIP3 product is detected by displacement of biotin-PIP3 from an energy transfer complex consisting of Europium labeled anti-GST monoclonal antibody, a GST-tagged PH domain, biotinylated PIP3 and Streptavidin-APC. Excitation of Europium in the complex results in an energy transfer to the APC and a fluorescence emission at 665 nm. The PIP3 product displaces biotin-PIP3 from the complex resulting in a loss of energy transfer and thus a decrease in signal.
# To test for the ability of compounds to inhibit the activity of PI3Kα (wild-type), exemplary compounds of formula (I) were dissolved in DMSO and directly distributed into 384-well plates at a volume of 0.5 μL. 14.5 μL of P110/P85α/PIP2 mixture in buffer (obtained from the Millipore kit) containing MgCl2 (40 mM) and DTT (5 mM) was added to compound wells and incubated for 60 minutes at room temperature. P110/P85α was expressed in SF9 insect cells and purified nickel column extraction. Five ng of wild-type P110/P85α was used in the assay. The kinase reaction was started by the addition of ATP. The assay concentrations of both PIP2 and ATP were 10 μM. The reaction mixture was incubated for 30 minutes at room temperature and was terminated by the addition of stop mix and detection mix. Fluorescence was measured at 615 and 665 nm upon excitation at 340 nm in a Victor™ V5 fluorometer (Perkin Elmer, USA). The fluorescence emission ratio at 665 to 615 nm, proportional to the kinase activity, was plotted against the compound concentration to generate dose-response curves and IC50 values were determined using GraphPad Prism® 5 software.
# mTOR kinase = target: T2, mTOR kinase (Homo sapiens, UniProt P42345); assay: mTOR kinase TR-FRET assay; format: biochemical; conditions: 20 μM ATP
# T2 construct: purchased Millipore, USA
# T2 sequence (P42345 1362-2549 limits assumed): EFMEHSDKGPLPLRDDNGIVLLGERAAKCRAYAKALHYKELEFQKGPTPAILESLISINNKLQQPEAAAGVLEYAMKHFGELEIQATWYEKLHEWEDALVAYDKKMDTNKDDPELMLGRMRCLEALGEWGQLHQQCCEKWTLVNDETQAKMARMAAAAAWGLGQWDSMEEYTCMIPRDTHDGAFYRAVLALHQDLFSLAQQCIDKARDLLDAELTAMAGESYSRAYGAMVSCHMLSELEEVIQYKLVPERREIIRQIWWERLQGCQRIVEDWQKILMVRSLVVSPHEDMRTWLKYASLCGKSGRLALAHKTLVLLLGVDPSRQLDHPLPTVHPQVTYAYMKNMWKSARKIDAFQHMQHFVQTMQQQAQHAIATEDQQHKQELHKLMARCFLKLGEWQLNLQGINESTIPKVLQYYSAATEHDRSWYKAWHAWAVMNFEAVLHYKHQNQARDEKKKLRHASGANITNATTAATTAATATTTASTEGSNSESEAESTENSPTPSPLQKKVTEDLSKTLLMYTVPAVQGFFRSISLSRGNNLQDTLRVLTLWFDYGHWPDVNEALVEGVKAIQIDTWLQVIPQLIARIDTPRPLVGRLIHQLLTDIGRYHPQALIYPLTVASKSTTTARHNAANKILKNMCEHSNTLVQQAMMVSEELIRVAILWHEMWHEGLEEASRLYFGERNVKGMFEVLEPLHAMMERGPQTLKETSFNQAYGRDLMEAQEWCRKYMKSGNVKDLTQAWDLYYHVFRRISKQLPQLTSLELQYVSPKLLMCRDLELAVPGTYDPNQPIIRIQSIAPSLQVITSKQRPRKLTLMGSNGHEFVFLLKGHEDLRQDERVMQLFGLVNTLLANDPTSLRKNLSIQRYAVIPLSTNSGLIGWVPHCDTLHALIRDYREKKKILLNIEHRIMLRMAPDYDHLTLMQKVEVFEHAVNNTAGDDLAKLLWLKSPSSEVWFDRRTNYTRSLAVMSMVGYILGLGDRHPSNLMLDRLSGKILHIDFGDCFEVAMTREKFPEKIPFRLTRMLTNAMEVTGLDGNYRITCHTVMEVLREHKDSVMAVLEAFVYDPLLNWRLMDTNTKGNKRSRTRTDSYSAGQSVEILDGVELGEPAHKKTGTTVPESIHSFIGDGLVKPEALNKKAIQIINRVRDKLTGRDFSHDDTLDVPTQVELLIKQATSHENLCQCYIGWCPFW
# Protocol: Compound inhibition for mTOR kinase was determined in a homogeneous TR-FRET assay using the Lance® ULight-p70 S6K (Thr 389) peptide (obtained from Perkin-Elmer). The ULight™-labeled synthetic peptide contains the amino acid residues surrounding Thr389 of human p70 S6K. The ULight-p70 S6K peptide is phosphorylated at Thr389 by mTOR. Phosphorylation motif: LGFTYVAP as substrate.
# The compound dilution was carried out in 100% DMSO followed by a buffer dilution. The reaction buffer was HEPES (50 mM pH 7.5), EGTA (1 mM), MnCl2 (3 mM). Test compounds at various concentrations were pre-incubated with mTOR (Millipore, USA; 5 ng) for 60 min, and then the Lance® ULight-p70 S6K (Thr 389) peptide (50 nM) was added along with ATP (20 μM). After incubating the reaction mixture for 60 minutes at room temperature, the kinase reaction was terminated by the addition of EDTA (10 mM) followed by the addition of detection mix, i.e., 1 nM Eu-labeled anti-phospho-substrate antibody (Perkin Elmer, USA). The fluorescence emission at […] was measured upon excitation at 340 nm. IC50 values were subsequently determined using a sigmoidal dose-response curve (variable slope) in GraphPad Prism® 5 software.
# Compounds of formula (I) caused inhibition of mTOR kinase activity as determined by this assay.
# PC3 cells = assay: XTT assay for cell viability, PC3 cells; format: cell-based; conditions: Homo sapiens, PC-3; PC3 cell proliferation, 96 hours
# Protocol: Using a commercial kit from Sigma Aldrich (Catalog #X34251) and following its protocol, PC3 cells in the log phase of growth were employed and seeded at an optimal density of 1000 cell/well on to 96 well plates and incubated for 24 hours followed by the addition of compounds of formula (I) in serial dilutions. Compound dilutions were made in DMSO. The cells were incubated with the compounds of formula (I) for 96 hours and XTT tetrazolium dye (Sigma, USA) was subsequently added and incubated at 37° C. After the color formation, absorbance was measured at 465 nm in a Spectramax® Gemini spectrophotometer. EC50 values were calculated using a sigmoidal dose response curve fit in GraphPad Prism® v5 software. The tested compounds of formula (I) which caused inhibition of PC3 cell proliferation as determined by this assay protocol are shown in Table 2.
# T1 sequence (P42336 whole entry, species assumed): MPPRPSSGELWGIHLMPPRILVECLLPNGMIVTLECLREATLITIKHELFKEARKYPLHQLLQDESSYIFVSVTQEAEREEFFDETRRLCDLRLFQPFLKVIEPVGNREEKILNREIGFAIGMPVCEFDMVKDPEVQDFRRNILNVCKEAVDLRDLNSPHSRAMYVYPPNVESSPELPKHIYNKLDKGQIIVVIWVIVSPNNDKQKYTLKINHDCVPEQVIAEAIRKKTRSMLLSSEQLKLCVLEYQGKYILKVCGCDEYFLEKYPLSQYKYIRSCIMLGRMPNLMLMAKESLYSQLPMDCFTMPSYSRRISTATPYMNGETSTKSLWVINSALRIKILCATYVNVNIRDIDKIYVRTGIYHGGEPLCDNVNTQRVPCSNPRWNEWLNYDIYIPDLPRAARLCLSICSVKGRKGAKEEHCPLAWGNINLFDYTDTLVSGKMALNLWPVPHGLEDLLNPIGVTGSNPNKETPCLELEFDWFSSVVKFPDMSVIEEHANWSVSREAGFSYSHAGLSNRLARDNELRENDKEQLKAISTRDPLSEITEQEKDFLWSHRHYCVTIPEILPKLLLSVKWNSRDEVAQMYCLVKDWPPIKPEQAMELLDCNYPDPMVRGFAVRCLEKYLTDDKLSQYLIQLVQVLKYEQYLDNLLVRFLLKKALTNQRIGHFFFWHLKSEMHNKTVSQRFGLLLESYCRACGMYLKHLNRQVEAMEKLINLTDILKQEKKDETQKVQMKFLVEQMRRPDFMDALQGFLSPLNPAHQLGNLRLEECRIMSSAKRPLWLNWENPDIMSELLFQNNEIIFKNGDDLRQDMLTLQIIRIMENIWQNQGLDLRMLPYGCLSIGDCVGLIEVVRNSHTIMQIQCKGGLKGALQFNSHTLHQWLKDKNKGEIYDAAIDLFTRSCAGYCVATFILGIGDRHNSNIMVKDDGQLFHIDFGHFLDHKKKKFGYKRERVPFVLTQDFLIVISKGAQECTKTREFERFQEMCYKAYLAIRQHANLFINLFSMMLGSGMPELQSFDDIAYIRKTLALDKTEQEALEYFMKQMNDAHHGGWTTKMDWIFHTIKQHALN
# T1 sequence (P27986 whole entry partner, species assumed): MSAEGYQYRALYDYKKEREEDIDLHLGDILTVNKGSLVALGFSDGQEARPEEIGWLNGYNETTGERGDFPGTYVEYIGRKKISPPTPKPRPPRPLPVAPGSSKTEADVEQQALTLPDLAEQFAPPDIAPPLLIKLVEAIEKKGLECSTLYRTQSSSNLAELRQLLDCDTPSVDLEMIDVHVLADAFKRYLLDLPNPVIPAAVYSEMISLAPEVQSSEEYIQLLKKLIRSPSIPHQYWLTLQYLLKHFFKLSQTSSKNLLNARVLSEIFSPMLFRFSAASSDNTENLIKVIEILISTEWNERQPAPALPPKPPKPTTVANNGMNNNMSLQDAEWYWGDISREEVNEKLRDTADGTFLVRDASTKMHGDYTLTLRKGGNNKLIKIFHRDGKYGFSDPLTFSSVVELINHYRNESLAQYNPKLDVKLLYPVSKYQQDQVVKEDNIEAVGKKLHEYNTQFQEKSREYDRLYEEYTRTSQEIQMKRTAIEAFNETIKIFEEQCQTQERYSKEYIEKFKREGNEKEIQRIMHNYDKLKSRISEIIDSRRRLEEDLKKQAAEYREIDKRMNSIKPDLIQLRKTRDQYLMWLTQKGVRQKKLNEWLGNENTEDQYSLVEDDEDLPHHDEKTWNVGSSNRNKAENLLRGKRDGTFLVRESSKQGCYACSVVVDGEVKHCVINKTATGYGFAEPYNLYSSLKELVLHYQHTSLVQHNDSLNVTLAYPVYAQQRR
Compound,IC50 (PI3Kα (wild-type)),IC50 (mTOR kinase),IC50 (PC3 cells)
"CC(=O)N1CCN(C(=O)c2cccc(-c3cnc4c(N5CCOCC5)nc(-c5cnc(N)nc5)nc4c3)c2)CC1 [Example 35, 1-(4-(3-(2-(2-amino-pyrimidin-5-yl)-4-morpholinopyrido[3,2-d]-pyrimidin-7-yl)benzoyl)-piperazin-1-yl)ethanone]",< 50 nM,50 to 200 nM,501 to 5000 nM
"Nc1ncc(-c2nc(N3CCOCC3)c3ncc(-c4cccc(NC(=O)C56CC7CC(CC(C7)C5)C6)c4)cc3n2)cn1 [Example 65, N-(3-(2-(2-amino-pyrimidin-5-yl)-4-morpholinopyrido[3,2-d]pyrimidin-7-yl)-phenyl)adamantane-1-carboxamide]",< 50 nM,201 to 10000 nM,501 to 5000 nM
"CN1CCN(CC(=O)Nc2cccc(-c3cnc4c(N5CCOCC5)nc(-c5cnc(N)nc5)nc4c3)c2)CC1 [Example 83, N-(3-(2-(2-aminopyrimidin-5-yl)-4-morpholinopyrido[3,2-d]pyrimidin-7-yl)phenyl)-2-(4-methylpiperazin-1-yl)acetamide]",< 50 nM,50 to 200 nM,100 to 500 nM
"CN1CCN(C(=O)Nc2cccc(-c3cnc4c(N5CCOCC5)nc(-c5cnc(N)nc5)nc4c3)c2)CC1 [Example 89, N-(3-(2-(2-aminopyrimidin-5-yl)-4-morpholinopyrido[3,2-d]pyrimidin-7-yl)phenyl)-4-methylpiperazine-1-carboxamide]",< 50 nM,< 50 nM,501 to 5000 nM
"CN1CCN(c2cncc(-c3cnc4c(N5CCOCC5)nc(-c5cnc(N)nc5)nc4c3)c2)CC1 [Example 100, 5-(7-(5-(4-methyl-piperazin-1-yl)pyridin-3-yl)-4-morpholino-pyrido[3,2-d]pyrimidin-2-yl)pyrimidin-2-amine]",< 50 nM,50 to 200 nM,501 to 5000 nM
"CN1CCN(c2cccc(-c3cnc4c(N5CCOCC5)nc(-c5cnc(N)nc5)nc4c3)c2)CC1 [Example 101, 5-(7-(3-(4-methyl-piperazin-1-yl)phenyl)-4-morpholinopyrido[3,2-d]-pyrimidin-2-yl)pyrimidin-2-amine]",< 50 nM,50 to 200 nM,100 to 500 nM
"Nc1ncc(-c2nc(N3CCOCC3)c3ncc(-c4cccc(N5CCNCC5)c4)cc3n2)cn1 [Example 106, 5-(4-morpholino-7-(3-(piperazin-1-yl)-phenyl)pyrido[3,2-d]-pyrimidin-2-yl)pyrimidin-2-amine]",< 50 nM,50 to 200 nM,501 to 5000 nM
"CC(C)(O)C(=O)N1CCN(c2cccc(-c3cnc4c(N5CCOCC5)nc(-c5cnc(N)nc5)nc4c3)c2)CC1 [Example 108, 1-(4-(3-(2-(2-amino-pyrimidin-5-yl)-4-morpholinopyrido[3,2-d]pyrimidin-7-yl)-phenyl)piperazin-1-yl)-2-hydroxy-2-methylpropan-1-one]",< 50 nM,< 50 nM,100 to 500 nM
"Nc1ncc(-c2nc(N3CCOCC3)c3ncc(-c4ccc5c(c4)NC(=O)CO5)cc3n2)cn1 [Example 111, 6-(2-(2-aminopyrimidin-5-yl)-4-morpholinopyrido[3,2-d]pyrimidin-7-yl)-2H-benzo[b][1,4]oxazin-3(4H)-one]",< 50 nM,50 to 200 nM,100 to 500 nM

# Second part, the molecule after the results:
IC50 (PI3Kα (wild-type)),IC50 (mTOR kinase),IC50 (PC3 cells),Compound
< 50 nM,50 to 200 nM,501 to 5000 nM,"CNC(=O)Nc1cccc(-c2cnc3c(N4CCOCC4)nc(-c4cnc(N)nc4)nc3c2)c1 [Example 28, 1-(3-(2-(2-amino-pyrimidin-5-yl)-4-morpholinopyrido[3,2-d]pyrimidin-7-yl)phenyl)-3-methylurea]"
< 50 nM,< 50 nM,100 to 500 nM,"Nc1ncc(-c2nc(N3CCOCC3)c3ncc(-c4ccc(C(=O)Nc5cccnc5)o4)cc3n2)cn1 [Example 34, 5-(2-(2-aminopyrimidin-5-yl)-4-morpholino-pyrido[3,2-d]pyrimidin-7-yl)-N-(pyridin-3-yl)furan-2-carboxamide]"
< 50 nM,50 to 200 nM,> 1000 nM,"Nc1ncc(-c2nc(N3CCOCC3)c3ncc(-c4ccc(C(=O)Nc5ccncc5)cc4)cc3n2)cn1 [Example 38, 4-(2-(2-aminopyrimidin-5-yl)-4-morpholino-pyrido[3,2-d]pyrimidin-7-yl)-N-(pyridin-4-yl)-benzamide]"
< 50 nM,< 50 nM,100 to 500 nM,"CC(F)C(=O)Nc1cccc(-c2cnc3c(N4CCOCC4)nc(-c4cnc(N)nc4)nc3c2)c1 (stereo not drawn) [Example 51, N-(3-(2-(2-amino-pyrimidin-5-yl)-4-morpholinopyrido[3,2-d]pyrimidin-7-yl)phenyl)-2-fluoropropanamide]"
< 50 nM,50 to 200 nM,100 to 500 nM,"CC(=O)Nc1ccc(F)c(-c2cnc3c(N4CCOCC4)nc(-c4cnc(N)nc4)nc3c2)c1 [Example 55, N-(3-(2-(2-amino-pyrimidin-5-yl)-4-morpholinopyrido[3,2-d]pyrimidin-7-yl)-4-fluorophenyl)acetamide]"
< 50 nM,50 to 200 nM,501 to 5000 nM,"Nc1ncc(-c2nc(N3CCOCC3)c3ncc(-c4cccc(NC(=O)C5CCCCC5)c4)cc3n2)cn1 [Example 60, N-(3-(2-(2-amino-pyrimidin-5-yl)-4-morpholinopyrido[3,2-d]pyrimidin-7-yl)-phenyl)cyclohexane-carboxamide]"
< 50 nM,< 50 nM,100 to 500 nM,"Nc1ncc(-c2nc(N3CCOCC3)c3ncc(-c4ccc(NC(=O)c5cccnc5)cc4)cc3n2)cn1 [Example 77, N-(4-(2-(2-amino-pyrimidin-5-yl)-4-morpholinopyrido[3,2-d]pyrimidin-7-yl)-phenyl)nicotinamide]"
< 50 nM,< 50 nM,100 to 500 nM,"Nc1ncc(-c2nc(N3CCOCC3)c3ncc(-c4cccc(C(=O)Nc5ccncc5F)c4)cc3n2)cn1 [Example 97, 3-(2-(2-aminopyrimidin-5-yl)-4-morpholinopyrido[3,2-d]-pyrimidin-7-yl)-N-(3-fluoropyridin-4-yl)-benzamide]"
< 50 nM,< 50 nM,100 to 500 nM,"Nc1ncc(-c2nc(N3CCOCC3)c3ncc(-c4cccc(C(=O)NC5CC5)c4)cc3n2)cn1 [Example 98, 3-(2-(2-aminopyrimidin-5-yl)-4-morpholinopyrido[3,2-d]-pyrimidin-7-yl)-N-cyclopropylbenzamide]"
< 50 nM,< 50 nM,100 to 500 nM,"Nc1ncc(-c2nc(N3CCOCC3)c3ncc(-c4cccc(NC(=O)c5cncc(F)c5)c4)cc3n2)cn1 [Example 99, N-(3-(2-(2-amino-pyrimidin-5-yl)-4-morpholinopyrido[3,2-d]-pyrimidin-7-yl)phenyl)-5-fluoronicotinamide]"
< 50 nM,50 to 200 nM,100 to 500 nM,"CN(C)CCNC(=O)c1cccc(-c2cnc3c(N4CCOCC4)nc(-c4cnc(N)nc4)nc3c2)c1 [Example 102, 3-(2-(2-aminopyrimidin-5-yl)-4-morpholinopyrido[3,2-d]-pyrimidin-7-yl)-N-(2-(dimethylamino)ethyl)-benzamide]"
